Source: patent publication US20250230193A1, “CYCLIC COMPOUND HAVING SELECTIVE KRAS INHIBITORY EFFECT ON HRAS AND NRAS” (CHUGAI SEIYAKU KABUSHIKI KAISHA, priority 2022, published 2025)
Where a SMILES comes first, the peptide text is derived from it. Bridges are numbered along the chain shown (N, C = ends). [ ]: non-standard residue; d: D form. The star is where a group is joined. hPhe(3,5-F2-4-CF3) = N[C@@H](CCc1cc(F)c(C(F)(F)F)c(F)c1)C(=O)O; hPhe(3-Cl-4-CF3) = N[C@@H](CCc1ccc(C(F)(F)F)c(Cl)c1)C(=O)O; NPrPhe(4-CF3) = CCCN[C@@H](Cc1ccc(C(F)(F)F)cc1)C(=O)O; NMeAbu(4,4,4-F3) = CN[C@@H](CC(F)(F)F)C(=O)O; Morpholine(3S-CO) = O=C(O)[C@@H]1COCCN1; NMeGly(cPent) = CN[C@H](C(=O)O)C1CCCC1; NMeD = CN[C@@H](CC(=O)O)C(=O)O; NMeL = CN[C@@H](CC(C)C)C(=O)O; Morpholide = C1CN(*)CCO1; NMeA = CN[C@@H](C)C(=O)O; Ac5c = NC1(C(=O)O)CCCC1; Aze = O=C(O)[C@@H]1CCN1; Sar = CNCC(=O)O

Experiments:
[1] = biological target: GDP-bound NRAS wild-type protein (Homo sapiens, UniProt P01111); test: Binding to NRAS by surface plasmon resonance (SPR), Single Cycle Kinetics; conditions: for NRAS/KRAS (ratio of KD value with respect to NRAS to KD value with respect to KRAS): GDP-bound NRAS wild-type vs GDP-bound KRAS wild-type
[2] = biological target: GDP-bound HRAS wild-type protein (Homo sapiens, UniProt P01112); test: Binding to HRAS by surface plasmon resonance (SPR), Single Cycle Kinetics; conditions: for HRAS/KRAS (ratio of KD value with respect to HRAS to KD value with respect to KRAS): GDP-bound HRAS wild-type vs GDP-bound KRAS wild-type
[3] = KD ratio NRAS/KRAS, class symbols
[4] = KD ratio HRAS/KRAS, class symbols

Chain of GDP-bound NRAS wild-type protein (P01111 whole entry): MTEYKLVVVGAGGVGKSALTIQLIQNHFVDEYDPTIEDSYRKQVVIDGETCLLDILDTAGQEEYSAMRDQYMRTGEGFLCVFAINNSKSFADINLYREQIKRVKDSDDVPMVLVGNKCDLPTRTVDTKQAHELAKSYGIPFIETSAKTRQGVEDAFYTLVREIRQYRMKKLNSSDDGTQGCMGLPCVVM
Chain of GDP-bound HRAS wild-type protein (P01112 whole entry): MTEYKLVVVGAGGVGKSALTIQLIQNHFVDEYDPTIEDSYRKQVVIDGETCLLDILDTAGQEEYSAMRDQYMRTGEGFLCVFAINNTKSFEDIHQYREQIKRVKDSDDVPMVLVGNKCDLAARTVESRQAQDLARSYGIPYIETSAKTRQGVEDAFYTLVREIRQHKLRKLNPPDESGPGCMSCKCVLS

SMILES: CCCN1C(=O)[C@@H]2CCN2C(=O)[C@H](C)N(C)C(=O)[C@H]([C@@H](C)CC)NC(=O)[C@H](CC(C)C)N(C)C(=O)C[C@@H](C(=O)N2CCOCC2)N(C)C(=O)[C@H](C2CCCC2)N(C)C(=O)C2(CCCC2)NC(=O)[C@@H]2COCCN2C(=O)[C@H](CCc2ccc(C(F)(F)F)c(Cl)c2)NC(=O)CN(C)C(=O)[C@@H]1Cc1ccc(C(F)(F)F)cc1 [PP0286] ([NMeL]I[NMeA][Aze][NPrPhe(4-CF3)][Sar][hPhe(3-Cl-4-CF3)][Morpholine(3S-CO)][Ac5c][NMeGly(cPent)][NMeD]-Morpholide; lactam N-11)
- NRAS/KRAS (ratio of KD for GDP-bound NRAS wild-type to KD for KRAS) ([1]; KD ratio NRAS/KRAS, SPR): C (A compound having a KD ratio of 0.1 or more and less than 3 is denoted as C)
- HRAS/KRAS (ratio of KD for GDP-bound HRAS wild-type to KD for KRAS) ([2]; KD ratio HRAS/KRAS, SPR): B (a compound having 3 or more and less than 10 is denoted as B)

SMILES: CCO[C@H](C)[C@@H]1NC(=O)[C@H](CC(C)C)N(C)C(=O)C[C@@H](C(=O)N(C)C)N(C)C(=O)[C@H](C2CCCC2)N(C)C(=O)C2(CC(C)(C)C2)NC(=O)[C@@H]2C[C@H](C)CN2C(=O)[C@H](CCc2ccc(C(F)(F)F)c(OC)c2)NC(=O)CN(C)C(=O)[C@H](Cc2ccc(C)cc2)N2CC/C=C\C[C@@H](C2=O)N(C)C(=O)[C@@H]2CCCN2C1=O [PP2418]
- NRAS/KRAS (ratio of KD value with respect to NRAS to KD value with respect to KRAS) ([1]; SPR): A (a compound having 10 or more and less than 20 is denoted as A)
- HRAS/KRAS (ratio of KD value with respect to HRAS to KD value with respect to KRAS) ([2]; SPR): B (a compound having 3 or more and less than 10 is denoted as B)

SMILES: CCCN1C(=O)CN(C)C(=O)[C@@H]2CCN2C(=O)[C@H]([C@@H](C)CC)NC(=O)[C@H](CC(C)C)N(C)C(=O)C[C@@H](C(=O)N2CCOCC2)N(C)C(=O)[C@H](CC(F)(F)F)N(C)C(=O)C2(CCCC2)NC(=O)[C@@H]2CCCN2C(=O)[C@H](CCc2cc(F)c(C(F)(F)F)c(F)c2)NC(=O)CN(C)C(=O)[C@@H]1Cc1ccc(C(F)(F)F)cc1 [PP0784] ([NMeL]I[Aze][Sar][NPrPhe(4-CF3)][Sar][hPhe(3,5-F2-4-CF3)]P[Ac5c][NMeAbu(4,4,4-F3)][NMeD]-Morpholide; lactam N-11)
- NRAS/KRAS (ratio of KD value with respect to GDP-bound NRAS wild-type protein to KD value with respect to KRAS) ([1]; KD ratio NRAS/KRAS, SPR): B (a compound having 3 or more and less than 10 is denoted as B)
- HRAS/KRAS (ratio of KD value with respect to GDP-bound HRAS wild-type protein to KD value with respect to KRAS) ([2]; KD ratio HRAS/KRAS, SPR): B (a compound having 3 or more and less than 10 is denoted as B)

SMILES: CCO[C@@H]1C[C@H]2C(=O)NC3(CCC3)C(=O)N(C)[C@@H]([C@@H](C)CC)C(=O)N(C)[C@H](C(=O)N(C)C)CC(=O)N(C)[C@@H](CC)C(=O)N[C@@H]([C@@H](C)CC)C(=O)N(C)CC(=O)N(C)[C@H]3C/C=C\CCN(C3=O)[C@@H](Cc3ccc(C(F)(F)F)cc3)C(=O)N(C)CC(=O)N[C@@H](CCc3cc(F)c(C(F)(F)F)c(F)c3)C(=O)N2C1 [PP1087]
- NRAS/KRAS (ratio of KD value with respect to NRAS to KD value with respect to KRAS) ([1]; KD ratio, SPR): A (a compound having 10 or more and less than 20 is denoted as A)
- HRAS/KRAS (ratio of KD value with respect to HRAS to KD value with respect to KRAS) ([2]; KD ratio, SPR): A (a compound having 10 or more and less than 20 is denoted as A)

SMILES: CCC[C@H]1C(=O)N[C@@H](C2CCCC2)C(=O)N(C)CC(=O)N(C)[C@H]2C/C=C\CCN(C2=O)[C@@H](Cc2ccc(C(F)(F)F)cc2)C(=O)N(C)CC(=O)N[C@@H](CCc2ccc(C(F)(F)F)c(Cl)c2)C(=O)N2CC3(CC3)C[C@H]2C(=O)NC2(CC(C)(C)C2)C(=O)N(C)[C@@H](CC(C)(C)C)C(=O)N(C)[C@H](C(=O)N(C)C)CC(=O)N1C [PP2981]
- NRAS/KRAS (ratio of KD value with respect to GDP-bound NRAS wild-type protein to KD value with respect to KRAS) ([1]; KD ratio NRAS/KRAS, SPR, GDP-bound wild-type proteins): AA (a compound having 20 or more is denoted as AA)
- HRAS/KRAS (ratio of KD value with respect to GDP-bound HRAS wild-type protein to KD value with respect to KRAS) ([2]; KD ratio HRAS/KRAS, SPR, GDP-bound wild-type proteins): A (a compound having 10 or more and less than 20 is denoted as A)

SMILES: CCC[C@H]1C(=O)N[C@@H]([C@@H](C)CC)C(=O)N(C)CC(=O)N(C)[C@H]2C/C=C\CCN(C2=O)[C@@H](Cc2ccc(C)cc2)C(=O)N(C)CC(=O)N[C@@H](CCc2ccc3c(C)c(C)n(C)c3c2)C(=O)N2C[C@H](OCC)C[C@H]2C(=O)NC2(CC(C)(C)C2)C(=O)N(C)[C@@H](C(CC)CC)C(=O)N(C)[C@H](C(=O)N(C)C)CC(=O)N1C [PP2906]
- NRAS/KRAS (ratio of KD value with respect to GDP-bound NRAS wild-type protein to KD value with respect to KRAS) [1, 3]: A (a compound having 10 or more and less than 20 is denoted as A)
- HRAS/KRAS (ratio of KD value with respect to GDP-bound HRAS wild-type protein to KD value with respect to KRAS) [2, 4]: A (a compound having 10 or more and less than 20 is denoted as A)

SMILES: CCO[C@@H]1C[C@H]2C(=O)NC3(CCC3)C(=O)N(C)[C@@H](C3CCCC3)C(=O)N(C)[C@H](C(=O)N(C)C)CC(=O)N(C)[C@@H](CC3CCCC3)C(=O)N[C@@H]([C@@H](C)CC)C(=O)N(C)CC(=O)N(C)[C@H]3C/C=C\CCN(C3=O)[C@@H](Cc3ccc(C)cc3)C(=O)N(C)CC(=O)N[C@@H](CCc3ccc(C4CC4)c(C)c3)C(=O)N2C1 [PP2685]
- NRAS/KRAS (ratio of KD value with respect to GDP-bound NRAS wild-type protein to KD value with respect to KRAS) [1, 3]: A (a compound having 10 or more and less than 20 is denoted as A)
- HRAS/KRAS (ratio of KD value with respect to GDP-bound HRAS wild-type protein to KD value with respect to KRAS) [2, 4]: A (a compound having 10 or more and less than 20 is denoted as A)
